These results are taken from the supplement of paper PMC10307832.

Common to all, as to assay: relative viability (nuclei count vs DMSO), 5 days (fraction); higher = more cells survive
Compound in test [1]: COc1cc2c(Oc3ccc4[nH]c(C)cc4c3F)ncnc2cc1OCCCN1CCCC1 [Cediranib] + CC(=O)c1c(C)c2cnc(Nc3ccc(N4CCNCC4)cn3)nc2n(C2CCCC2)c1=O [Palbociclib] (partner 0.5 µM)
Put shortly:
(§1)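 One day after seeding in 1536-well plates, lung cancer cell lines were dosed by pin tool. Dosing was either single-drug or a fixed anchor-drug dose plus five library-drug doses (not always all listed) in √10 steps. After 5 days, nuclei were stained in one fix-and-stain step and counted on 4× images, and relative viability is the nuclei count of treated wells over that of vehicle wells, given as the median of duplicate plates.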

Compound in test [2]: O=C(C[C@H]1NCCC[C@@H]1O)Cn1cnc2cc(Br)c(Cl)cc2c1=O (racemic) [Halofuginone] + COc1cc2c(Oc3ccc(NC(=O)C4(C(=O)Nc5ccc(F)cc5)CC4)cc3F)ccnc2cc1OCCCN1CCOCC1 [Foretinib] (partner 0.25 µM)
The procedure, abridged:
as §1

Compound in test [3]: COc1cc2c(Oc3ccc4[nH]c(C)cc4c3F)ncnc2cc1OCCCN1CCCC1 [Cediranib] + CCNC(=O)c1noc(-c2cc(C(C)C)c(O)cc2O)c1-c1ccc(CN2CCOCC2)cc1 [Luminespib] (partner 0.01 µM)
Put shortly:
as §1

Compound in test [4]: Nc1ncn([C@H]2C[C@H](O)[C@@H](CO)O2)c(=O)n1 [Decitabine] + CC(=O)Nc1cccc(-n2c(=O)n(C3CC3)c(=O)c3c(Nc4ccc(I)cc4F)n(C)c(=O)c(C)c32)c1 [Trametinib] (partner 0.02 µM)
The procedure, abridged: as §1

As for UMC-11, the relative viability in test [1] (first compound 0.04 µM) came to 0.345; in test [1] (first compound 0.1265 µM), 0.341; in test [1] (first compound 0.4 µM), 0.315; in test [1] (first compound 1.265 µM) it was 0.328; in test [1] (first compound 4 µM) it was 0.359; in test [2] (first compound 0.001 µM), 1.11. The relative viability amounted to 1 in test [2] (first compound 0.003162 µM); 0.991 in test [2] (first compound 0.01 µM); 0.848 in test [2] (first compound 0.03162 µM); 0.72 in test [2] (first compound 0.1 µM); 1.14 in test [3] (first compound 0.04 µM); 1.04 in test [3] (first compound 0.4 µM). For the same cell line, the relative viability in test [3] (first compound 4 µM) came out at 0.903; in test [4] (first compound 0.04 µM), 0.697; in test [4] (first compound 0.1265 µM), 0.609; in test [4] (first compound 0.4 µM), 0.4; in test [4] (first compound 1.265 µM), 0.331; in test [4] (first compound 4 µM), 0.367.
